Here are results for two sequences from US11795460B2, “Compositions and methods for TTR gene editing and treating ATTR amyloidosis” (Intellia Therapeutics, Inc., priority 2017, dated 2023).

Data set [1] concerns TTR. Kind of data set: TTR editing in HepG2 cells transfected with Spy Cas9 mRNA and dgRNAs (Table 6). In kind it is cell-based, human. The note with it: HepG2 cells co-transfected with Spy Cas9 mRNA (SEQ ID NO:2) and dgRNAs. The method, boiled down:
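HepG2 cells were transfected sequentially by lipofection with Spy Cas9 mRNA (100 ng), then crRNA plus tracer RNA (25 nM each), and harvested at 24, 48 or 72 h. Editing was measured by amplicon NGS at the TTR target site as the fraction of reads with indels or substitutions.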

Data set [2] has as its system TTR. The data set can be described thus: TTR editing in primary human hepatocytes transfected with Spy Cas9 protein (RNP) loaded with dgRNAs (Table 8). It counts as cell-based. The following applies: dgRNA transfected with Spy Cas9 protein (RNP). The method, boiled down:
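Primary human hepatocytes were lipofected (RNAiMAX) with RNP of Spy Cas9 (10 nM) plus pre-annealed crRNA (10 nM) and trRNA (10 nM) and harvested 24, 48 or 72 h later. Target-site amplicons were sequenced on Illumina MiSeq and aligned to hg38; percent editing = reads with indels or substitutions over total reads.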

The subject of another data set is off-target genomic sites. The data set can be described thus: Off-target oligo insertion based assay in HEK293_Cas9 cells, dgRNAs and sgRNAs (Tables 23, 24). The following applies: Table 23; TTR dgRNAs in HekCas9 cells, oligo insertion based assay. In kind it is cell-based, human. The method, boiled down: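 In HEK293 cells constitutively expressing Spy Cas9, crRNA (15 nM) plus trRNA (15 nM), or modified sgRNAs, were lipofected with donor oligo (10 nM). Genomic DNA was collected at 24 h, and oligo-insertion libraries were sequenced on MiSeq/HiSeq to map potential off-target cleavage sites.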

In the case of “CCAGUCCAGCAAGGCAGAGG (tested as dual guide RNA, chemistry not given here) [CR003337]”, in the data set on TTR [1], the “Avg % Deletion” value was determined as 2.65%, the “Avg % Edit” value was 61.93% and the “Avg % Insert” value is 59.28%. Further, in the data set on TTR [2], the “Avg % Deletion” value is reported as 1.88%, the “Avg % Edit” value is 49.43% and the “Avg % Insert” value is reported as 47.54%. For the same sequence, the “# Sites (off-target integration sites detected)” value in the data set with off-target genomic sites is given as 10.

Take “CCCAGAGGCAAAUGGCUCCC (tested as dual guide RNA, chemistry not given here) [CR003355]”: in the data set with TTR [1], the “Avg % Deletion” value worked out at 3.44%, the “Avg % Edit” value is reported as 15.80% and the “Avg % Insert” value came out at 12.36%. Besides, in the data set with TTR [2], the “Avg % Deletion” value worked out at 1.42%, the “Avg % Edit” value is on record as 19.11% and the “Avg % Insert” value was determined as 17.69%. The “# Sites (off-target integration sites detected)” value in the data set with off-target genomic sites was 1.
